How the values were obtained:
Type in all cases: physicochemical
[1] = Adhesiveness (amount of material sticking to the punch); conditions: about 30 mg, φ8 mm round tooling, 10 kN, compression repeated twice
Protocol: (§1) Approximately 30 mg of Form A and Form I in WO2017002095A1 were weighed, added into the dies of a φ8 mm round tooling, compressed at 10 kN and held for about 30 s. The amount of material sticking to the punch was weighed. The compression was repeated twice and the cumulative amount and average amount of material sticking to the punch during the compression were recorded.
as §1, with “Form F” for “Form A”
as §1, with “Form G” for “Form A”

[2] = Compressibility (tensile strength of compressed tablet); conditions: about 80 mg, φ6 mm round tooling, compressed at 10 kN
Protocol: (§2) Approximately 80 mg of Form A and Form I in WO2017002095A1 were weighed into the dies of a φ6 mm round tooling, compressed at 10 kN manually, then stored in a desiccator for 24 hours until complete elastic recovery. Radial crushing force (hardness, H) was tested with an intelligent tablet hardness tester. Diameter (D) and thickness (L) were tested with a caliper. Tensile strength of the powder that with different hardness was calculated with the following formula: T=2H/πDL. Under a certain force, the greater the tensile strength, the better the compressibility.
as §2, with “Form D” for “Form A”, “manually, and” for “manually,”, “powder” for “powder that”
as §2, with “of Form F and Form” for “of Form A and Form”, “kN manually, and then stored” for “kN manually, then stored”, “tested with caliper. Tensile” for “tested with a caliper. Tensile”, “the powder with different” for “the powder that with different”
Approximately 80 mg of Form G and Form I of WO2017002095A1 were weighed into the dies of a φ6 mm round tooling, compressed at 10 kN manually, and then stored in a desiccator for 24 hours until complete elastic recovery. Radial crushing force (hardness, H)) was tested with an intelligent tablet hardness tester. Diameter (D) and thickness (L) were tested with caliper. Tensile strength of the powder with different hardness was calculated with the following formula: T=2H/πDL. Under a certain force, the greater the tensile strength, the better the compressibility.
as §2, with “of Form CS15 and Form” for “of Form A and Form”, “kN manually, and then stored” for “kN manually, then stored”, “tested with caliper. Tensile” for “tested with a caliper. Tensile”, “the powder with different” for “the powder that with different”

[3] = Flowability (compressibility index / Carr index); conditions: for Flowability: by compressibility index; for Compressibility index: c=(ρf−ρ0)/ρf
Protocol: (§3) Compressibility index or Carr index is usually utilized to evaluate the flowability of powder and granules during the drug product process. Compressibility index test method is as follows: a certain amount of powder was added into a measuring cylinder and bulk volume was recorded. Then the powder was tapped to make it in the tightest state and the tapped volume was recorded. The bulk density (ρ0) and tapped density (ρf) were calculated. Compressibility index was calculated according to c=(ρf−ρ0)/ρf.
as §3, with “(ρ0),” for “(ρ0) and”, “calculated and compressibility” for “calculated. Compressibility”, “c=(pf-po)/pf.” for “c=(ρf−ρ0)/ρf.”
as §3, with “(ρ0),” for “(ρ0) and”, “calculated and compressibility” for “calculated. Compressibility”

Average amount (material sticking to the punch) [1] [µg] | Cumulative amount (material sticking to the punch) [1] [µg] | Tensile strength [2] [MPa] | Bulk density (ρ0) [3] [g/mL] | Tapped density (ρf) [3] [g/mL] | Flowability [3] | Compressibility index [3] [%] | Structure (SMILES)
30 | 60 | 1.62 | 0.443 | 0.488 | Good (11-15) | 11 | CC#CC(=O)N1CCC[C@H]1c1nc(-c2ccc(C(=O)Nc3ccccn3)cc2)c2c(N)nccn12 [Form G, (S)-4-(8-amino-3-(1-(but-2-ynoyl)pyrrolidin-2-yl)imidazo[1,5-a]pyrazin-1-yl)-N-(pyridin-2-yl)benzamide]
– | – | 1.18 | – | – | – | – | CC#CC(=O)N1CCC[C@H]1c1nc(-c2ccc(C(=O)Nc3ccccn3)cc2)c2c(N)nccn12 [Form CS15, (S)-4-(8-amino-3-(1-(but-2-ynoyl)pyrrolidin-2-yl)imidazo[1,5-a]pyrazin-1-yl)-N-(pyridin-2-yl)benzamide]
30 | 60 | 1.02 | 0.185 | 0.216 | Good (11-15) | 14 | CC#CC(=O)N1CCC[C@H]1c1nc(-c2ccc(C(=O)Nc3ccccn3)cc2)c2c(N)nccn12 [Form F, (S)-4-(8-amino-3-(1-(but-2-ynoyl)pyrrolidin-2-yl)imidazo[1,5-a]pyrazin-1-yl)-N-(pyridin-2-yl)benzamide]
40 | 80 | 1.35 | 0.269 | 0.303 | Good (11-15) | 11 | CC#CC(=O)N1CCC[C@H]1c1nc(-c2ccc(C(=O)Nc3ccccn3)cc2)c2c(N)nccn12 [Form A, (S)-4-(8-amino-3-(1-(but-2-ynoyl)pyrrolidin-2-yl)imidazo[1,5-a]pyrazin-1-yl)-N-(pyridin-2-yl)benzamide]

Source: patent US11091494B2, “Crystal form of acalabrutinib and preparation method and use thereof” (Crystal Pharmaceutical (Suzhou) Co., Ltd., priority 2018, dated 2021)
